# Results reported in patent US5892113A, “Hydroxyethyl aminimides” (priority 1997, dated 1999).
# Target: T1, HIV-1 protease (HIV-1 M:B_ARV2/SF2, UniProt P03369, C557X/C585X)
# T1 construct: aminobutyric acid at 67 and 95, thioester at 51-52; NovaBiochem kit
# Assay: Fluorometric HIV-1 protease inhibition assay (NovaBiochem kit, fluorogenic substrate)
# Format: biochemical
# Description: The inhibition constant (Ki) of compound Ia is determined using HIV-1 protease kit supplied by NovaBiochem (cat. #10-39-0001, which supplies a solid phase synthesized analog of the protease, incorporating the unnatural residue aminobutyric acid in place of both cysteine residues 67 and 95, along with a thioester linkage in place of the normal peptide bond between residues 51-52). A fluorometric assay is performed using a fluorogenic substrate supplied by NovaBiochem (cat. #05-23-5216, Abz-Thr-Ile-Nle-Phe(NO2)-Gln-Arg-NH2). Initial rates of substrate hydrolysis are determined by following the increase in the fluorescence emission at 420 nm (excitation is at 325 nm) as the substrate is digested by the protease. The initial rates of substrate cleavage is determined in the absence and presence of compound Ia (up to a concentration of Ia=500 nM).
structure (smiles),measurement,setting,value
"CC(C)(C)OC(=O)N[C@@H](Cc1ccccc1)[C@@H](O)C[N+](C)(Cc1ccccc1)[N-]C(=O)c1ccccc1 (single isomer, unassigned) [Ia]",mode of inhibition (Lineweaver-Burk analysis),initial rates of substrate cleavage in absence and presence of Ia (up to 500 nM),classical competitive inhibition
same,Ki,"read-out: inhibition constant (Ki), synthetic HIV-1 protease analog (NovaBiochem), substrate Abz-Thr-Ile-Nle-Phe(NO2)-Gln-Arg-NH2, replot of Lineweaver-Burk slopes, Ia up to 500 nM",137 nM
